What was measured:
Type in all cases: binding
[1] = target: T1, RXRA:PPARG LBD heterodimer (Homo sapiens, UniProt P37231); assay: TR-FRET NCOR1 ID2 peptide recruitment
T1 sequence (P37231 231-505): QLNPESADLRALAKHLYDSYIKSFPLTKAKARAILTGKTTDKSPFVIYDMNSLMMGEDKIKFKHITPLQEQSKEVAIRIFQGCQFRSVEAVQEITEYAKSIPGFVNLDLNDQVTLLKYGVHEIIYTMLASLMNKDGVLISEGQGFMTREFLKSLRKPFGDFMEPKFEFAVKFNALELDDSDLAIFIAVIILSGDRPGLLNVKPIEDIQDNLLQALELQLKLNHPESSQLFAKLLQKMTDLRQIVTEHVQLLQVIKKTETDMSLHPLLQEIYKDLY
T1 sequence (P19793 228-462 partner): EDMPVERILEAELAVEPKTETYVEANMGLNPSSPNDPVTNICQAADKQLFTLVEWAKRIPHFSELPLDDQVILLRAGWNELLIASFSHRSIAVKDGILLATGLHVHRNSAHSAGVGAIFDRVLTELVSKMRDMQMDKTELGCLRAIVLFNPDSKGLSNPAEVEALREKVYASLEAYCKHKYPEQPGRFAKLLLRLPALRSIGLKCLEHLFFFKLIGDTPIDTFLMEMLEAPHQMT

[2] = target: T1, RXRA:PPARG LBD heterodimer; assay: TR-FRET MED1 LxxLL peptide blockade
[3] = target: T2, PPARA/RXRA LBD heterodimer (Homo sapiens, UniProt Q07869); assay: TR-FRET NCOR1 ID2 peptide recruitment
T2 sequence (Q07869 196-468 limits assumed): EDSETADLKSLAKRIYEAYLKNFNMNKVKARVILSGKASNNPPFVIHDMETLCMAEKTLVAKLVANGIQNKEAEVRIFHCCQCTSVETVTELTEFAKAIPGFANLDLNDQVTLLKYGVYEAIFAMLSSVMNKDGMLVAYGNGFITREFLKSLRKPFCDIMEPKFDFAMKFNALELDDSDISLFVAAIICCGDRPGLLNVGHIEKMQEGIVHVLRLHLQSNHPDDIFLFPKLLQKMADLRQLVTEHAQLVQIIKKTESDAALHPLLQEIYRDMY
T2 sequence (P19793 228-462 partner): T1 sequence (P19793 228-462 partner)

[4] = target: T3, PPARD/RXRA LBD heterodimer (Homo sapiens, UniProt Q03181); assay: TR-FRET NCOR1 ID2 peptide recruitment
T3 sequence (Q03181 171-441 limits assumed): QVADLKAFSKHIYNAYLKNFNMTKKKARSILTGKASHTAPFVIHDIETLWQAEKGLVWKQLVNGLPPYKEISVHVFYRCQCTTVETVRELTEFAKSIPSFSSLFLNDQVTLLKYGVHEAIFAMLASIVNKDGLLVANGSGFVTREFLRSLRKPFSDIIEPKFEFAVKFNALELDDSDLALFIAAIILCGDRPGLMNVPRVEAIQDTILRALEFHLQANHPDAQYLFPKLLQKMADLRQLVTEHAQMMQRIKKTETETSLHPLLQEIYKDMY
T3 sequence (P19793 228-462 partner): T1 sequence (P19793 228-462 partner)

Structure (SMILES) | EC50 [1] | IC50 [2] | EC50 [3] | EC50 [4]
N#Cc1ccc(Br)c(-c2cc(=O)c3c(F)cc(F)cc3[nH]2)c1 [FTX-6713, 4-bromo-3-(5,7-difluoro-4-oxo-1,4-dihydroquinolin-2-yl)benzonitrile] | 70 ± 8 nM |  |  | 
N#Cc1ccc(Cl)c(-c2cc(=O)c3c(F)cc(F)cc3[nH]2)c1 [FTX-6746, 4-Chloro-3-(5,7-difluoro-4-oxo-1,4-dihydroquinolin-2-yl)benzonitrile] | 690 ± 70 nM | 740 ± 160 nM |  | 

Results, then the compound that gave them:

EC50 [1] | IC50 [2] | EC50 [3] | EC50 [4] | Structure (SMILES)
5000 nM |  |  |  | N#Cc1ccc(F)c(-c2cc(=O)c3c(F)cc(F)cc3[nH]2)c1 [FTX-6822, 3-(5,7-difluoro-4-oxo-1,4-dihydro-2-quinolyl)-4-fluorobenzonitrile]
200 ± 30 nM |  | > 100000 nM | > 100000 nM | CS(=O)(=O)c1ccc(C#N)cc1-c1cc(=O)c2c(F)cc(F)cc2[nH]1 [FX-909, 3-(5,7-difluoro-4-oxo-1,4-dihydroquinolin-2-yl)-4-(methylsulfonyl)benzonitrile]
 | 97 ± 38 nM |  |  | O=C(Nc1ccccc1)c1cc([N+](=O)[O-])ccc1Cl [GW9662]

Source: paper doi:10.1101/2025.05.08.652848v1 (biorxiv, 2025)
